A short description of this series: photoluminescence quantum yield (fraction); solvent given as SMILES.
[1] abbreviates: in c1ccc2c(c1)c1ccccc1n2-c1ccc(-c2ccc(-n3c4ccccc4c4ccccc43)cc2)cc1.

For `CC[n+]1nc2cc3c4c(c2c2cc(C)ccc21)CCCN4CCC3`, the photoluminescence quantum yield (in O) worked out at 0.27.
Turning to `c1ccc(-c2nc(-c3ccccc3)nc(-c3cc(-n4c5ccccc5c5ccccc54)c(-n4c5ccccc5c5ncccc54)c(-n4c5ccccc5c5ccccc54)c3)n2)cc1`, the photoluminescence quantum yield (in O=P(c1ccccc1)(c1ccccc1)c1ccc2oc3ccc(P(=O)(c4ccccc4)c4ccccc4)cc3c2c1) came out at 0.79.
For the compound `c1cnc(-c2c3ccccc3c(-c3cncnc3)c3ccccc23)nc1`, the photoluminescence quantum yield was 0.61 (in CCO) and 0.78 (in ClCCl).
The compound `O=CC1=Cc2cocc2C=C(C=O)C1` displayed a photoluminescence quantum yield (in ClC(Cl)Cl) of 0.
Consider `COc1ccc(-n2c3ccccc3c3cc(C=C(C#N)C#N)ccc32)cc1`, for which the photoluminescence quantum yield was determined as 0.03 (in C1CCOC1); 0.01 (in CC#N); 0.018 (in CC(C)=O); 0.05 (in CCOC(C)=O); 0.015 (in CO); 0.01 (in CS(C)=O). Further, the photoluminescence quantum yield was 0.15 (in Cc1ccccc1) and 0.035 (in ClC(Cl)Cl).
For the setting “in ClCCl”, `Oc1ccc2ccccc2c1-c1nc2c(c3c1-c1ccccc1CC3)-c1ccccc1CC2` registered a photoluminescence quantum yield of 0.07.
Turning to `CN(C)c1ccc(C(=O)Nc2ccc(Cl)cc2)cc1`, the photoluminescence quantum yield reads like this: (in C1CCCCC1) 0.0011; (in C1CCOC1) 0.0101; (in CC#N) 0.0171; (in CCOCC) 0.005.
The compound `N#Cc1cc2ccc3cc(C#N)c4ccccc4c3c2c2ccccc12` showed a photoluminescence quantum yield (in ClC(Cl)Cl) of 0.14.
The same measure, in the same setting: with `COc1ccc(C2=Cc3c4ccccc4c4ccccc4[n+]3[B-](F)(F)O2)cc1` the figure was 0.678.
`CC1=C(c2ccccc2)C(C)=[N+]2C1=C(c1ccccc1)c1c(C)c(-c3ccccc3)c(C)n1[B-]2(F)F` had a photoluminescence quantum yield (in Cc1ccccc1) of 0.325.
`CCCCCCOc1cc(N(CC)CC)ccc1/C=C(\C#N)c1ccc(/C=C/C(=C(C#N)C#N)c2ccc(N(c3ccccc3)c3ccccc3)cc2)s1` had a photoluminescence quantum yield (in ClCCl) of 0.027.
As for `CC(C)(C)c1ccc2c(c1)sc1[n+]2[B-](F)(F)n2c(c3cccc4cccc2c43)=N1`, the photoluminescence quantum yield (in C1CCOC1) is 0.85; the photoluminescence quantum yield (in CC#N) was 0.93; the photoluminescence quantum yield (in CCCCCC) worked out at 0.87; the photoluminescence quantum yield (in Cc1ccccc1) was 0.86; the photoluminescence quantum yield (in ClCCl) is 0.86.
On to `CCCCc1ccc2ccc3c(CCCC)cc(CCCC)c4ccc1c2c34`, for which the photoluminescence quantum yield by setting is: (in CCCCCC) 0.49; (in CO) 0.6; (in ClCCl) 0.43.
`N#CC1=CC(C#Cc2ccccc2)=CC(C#N)=P1(c1ccccc1)c1ccccc1`: the photoluminescence quantum yield (in ClC(Cl)Cl) came out at 0.61.
As to `N#Cc1cc(-n2c3ccccc3c3cc(Br)ccc32)c(-n2c3ccccc3c3cc(Br)ccc32)cc1C#N`, the photoluminescence quantum yield (in C1CCOC1) stood at 0.057 and the photoluminescence quantum yield under setting [1] is 0.543.
For the setting “in C1CCOC1”, `CCCc1ccc2c(c1)cc1n2B2c3c4c-1cccc4cc1cccc(c31)-c1cc3cc(CCC)ccc3n12` showed a photoluminescence quantum yield of 0.39.
`O=S(=O)([O-])c1ccc([O-])c2ccccc12` showed a photoluminescence quantum yield (in O) of 0.26.
The compound `c1ccc(-c2nc3ccccc3nc2-c2cc(-n3c4ccccc4c4ccccc43)cc(-n3c4ccccc4c4ccccc43)c2)cc1` had a photoluminescence quantum yield (in Cc1ccccc1) of 0.19.
For the compound `COc1ccc2c(-c3nc(-c4cccc(Br)c4)no3)cc(=O)oc2c1`, the photoluminescence quantum yield reads like this: (in CCO) 0.41; (in ClC(Cl)Cl) 0.33.
Take `CCN(CC)c1ccc(/C=N/c2cc3nc4ccccc4nc3cc2/N=C/c2ccc(N(CC)CC)cc2O)c(O)c1`: the photoluminescence quantum yield (in CC#N) turned out to be 0.21.
On to `FC(F)(F)c1ccc2oc3nc4oc5ccc(-n6c7ccccc7c7ccccc76)cc5c4cc3c2c1`, for which the photoluminescence quantum yield (in ClC(Cl)Cl) was 0.074.
For the compound `CCN(CC)c1ccc([N+]2=Cc3ccc4c5c(ccc4c3O[B-]2(c2ccccc2)c2ccccc2)C=[N+](c2ccc(N(CC)CC)cc2)[B-](c2ccccc2)(c2ccccc2)O5)cc1`, the photoluminescence quantum yield runs as follows: (in Cc1ccccc1) 0.4; (in ClCCl) 0.29.
`Cc1c2ccc3c(C)[n+](C)ccc3c2cc[n+]1C`: the photoluminescence quantum yield (in CC#N) was determined as 0.38.
As for `C(#Cc1ccc(C#Cc2ccc(C#Cc3ccccc3)cc2)cc1)c1ccccc1`, the photoluminescence quantum yield (in ClC(Cl)Cl) worked out at 0.61.
Take `CC1(C)c2ccccc2N(c2ccc(C(=O)/C=C(\O)c3ccc(N4c5ccccc5C(C)(C)c5ccccc54)cc3)cc2)c2ccccc21`: under setting [1], the photoluminescence quantum yield is 0.86.
`Cc1cccc(C)c1N1C(c2ccccc2)=Cc2cccc[n+]2[B-]1(F)F`: the photoluminescence quantum yield (in ClCCl) was determined as 0.36.
As for `CC1=c2cc3c(cc2=[N+]2C1=Cc1c4ccccc4c(C)n1[B-]2(F)F)C1=Cc2c4ccccc4c(C)n2[B-](F)(F)[N+]1=C3C`, the photoluminescence quantum yield (in ClC(Cl)Cl) worked out at 0.04.
For `CC1(C)c2cc(/C=C/c3nc(/C=C/c4ccc5c(c4)C(C)(C)c4cc(N(c6ccccc6)c6ccc7ccccc7c6)ccc4-5)nc(/C=C/c4ccc5c(c4)C(C)(C)c4cc(N(c6ccccc6)c6ccc7ccccc7c6)ccc4-5)n3)ccc2-c2ccc(N(c3ccccc3)c3ccc4ccccc4c3)cc21`, the photoluminescence quantum yield (in Cc1ccccc1) amounted to 0.25.
In the case of `COC(=O)c1ccc(NC(=O)c2ccc(N(C)C)cc2)cc1`, the photoluminescence quantum yield amounted to 0.0148 (in C1CCCCC1), 0.198 (in C1CCOC1), 0.0209 (in CC#N) and 0.0512 (in CCOCC).
`CC(=O)NC(Cc1ccc(O)cc1)C(=O)O[Si]1(OC(=O)C(Cc2ccc(O)cc2)NC(C)=O)n2c3c4ccccc4c2/N=C2N=C(/N=c4/c5ccccc5/c(n41)=N/C1=NC(=N\3)/c3ccccc31)c1ccccc1\2` (stereo not given) yielded a photoluminescence quantum yield (in CN(C)C=O) of 0.26.
Compound `CCn1c2ccccc2c2cc(C#Cc3cc(C#Cc4ccc5c(c4)c4ccccc4n5CC)ncn3)ccc21` had a photoluminescence quantum yield (in C1CCOC1) of 0.74; a photoluminescence quantum yield (in CCOC(C)=O) of 0.83; a photoluminescence quantum yield (in CN(C)C=O) of 0.68; a photoluminescence quantum yield (in Cc1ccccc1) of 0.84; a photoluminescence quantum yield (in ClCCl) of 0.72.
Consider `O=C([O-])c1ccccc1C1=c2cc3c4c(c2Oc2c1cc1c5c2CCCN5CCC1)CCC[N+]=4CCC3`, for which the photoluminescence quantum yield reads like this: (in CC#N) 1; (in CCO) 0.98; (in CN(C)C=O) 1; (in CO) 1; (in O) 0.99.
Under “in c1cc(-c2cccc(-n3c4ccccc4c4ccccc43)c2)cc(-n2c3ccccc3c3ccccc32)c1”, `CC(C)c1cc(C(C)C)c(B2c3cc(-n4c5ccccc5c5ccccc54)ccc3N(c3ccccc3)c3ccc(-n4c5ccccc5c5ccccc54)cc32)c(C(C)C)c1` returned a photoluminescence quantum yield of 0.99.
As for `Cc1cc(C)c(-c2c3ccccc3c3ccc4cc5c(-c6c(C)cc(C)cc6C)c6ccccc6c6ccc7cc2c3c4c7c56)c(C)c1`, where the note is “in ClCCl”, the photoluminescence quantum yield is 0.17.
As to `COc1cc(OC)cc(C2=C(c3cc(OC)c(OC)c(OC)c3)C3=Nc4c(-c5cc(OC)c(OC)c(OC)c5)c(-c5cc(OC)cc(OC)c5)c(-c5ccc(C(C)(C)C)cc5)n4[B-](F)(F)[N+]3=C2c2ccc(C(C)(C)C)cc2)c1`, the photoluminescence quantum yield (in Cc1ccccc1) turned out to be 0.01.
`N#Cc1nc(N(Cc2ccc(Cl)cc2)Cc2ccc(Cl)cc2)c(C#N)nc1N(Cc1ccc(Cl)cc1)Cc1ccc(Cl)cc1` had a photoluminescence quantum yield (in ClC(Cl)Cl) of 0.71.
Turning to `CCCN1/C(=C\c2c(-c3ccc(N(C)C)cc3)c(=O)c2=O)C=Cc2ccccc21`, the photoluminescence quantum yield is, setting by setting: (in C1CCCCC1) 0.0262; (in Cc1ccccc1) 0.0201; (in ClCCl) 0.001.
